Test: Plasma glucose level after subcutaneous injection of insulin in rabbits
Format: in vivo, Japanese Wister rabbit
Settings: rabbit, 0.5 ml of 1 unit/ml
Protocol: For each insulin sample, an aliquot was taken from the fractions so that the insulin contents for both kinds of insulin calculated based on the main peak areas became same, and then dried.
The resulting solution (0.5 ml) was subcutaneously injected to the back of a Japanese Wister rabbit (Kbs:JW, […]). After the injection, blood was collected from the anterior auricular vein of the rabbit over a period of time. Each blood sample (0.45 ml) was added with a mix of glycolysis-inhibiting agents (NaF: 12.5 mg/ml, heparin-Na: 125 units/ml, EDTA-2Na: 48 mg/ml) ([…]]) and fully mixed. The mixed solution was centrifuged at 3,000 rpm for 15 min. at 5° C., and the supernatant was used as a plasma sample. For each plasma sample, the plasma glucose level was determined using a biochemical automated analyzer (CIBA-CORNING; Express PLUS), and the plasma insulin level was determined using EIA kit (Wako Pure Chemical Industries, Ltd.).

Novolin: a commercially available insulin, Novolin 40, (Novo Nordisk Pharma); insulin fractions re-purified by HPLC before testing
time course of the plasma glucose level after the injection of insulin (subcutaneous injection to the back, FIG. 9): showed the decrease in plasma glucose level | plasma glucose level compared with ITOHAM insulin (subcutaneous, relative to ITOHAM insulin): slight lower plasma glucose level

Source: US6841361B1, “Methods of producing recombinant insulin from novel fused proteins” (Itoham Foods Inc., priority 1999, dated 2005)
